From EP1698638A1, “Lipopeptides having pharmaceutical activity” (Technische Universität Berlin, priority 2005, dated 2006)

How the values were obtained:
[1] = test system: Fusarium sambucium; assay: disk diffusion assay on malt agar plates; assay type: cell-based; conditions: 10 µg in 30 µL 50% MeOH per disk
[2] = test system: Candida glabrata; assay: disk diffusion assay on malt agar plates; assay type: cell-based; conditions: 10 µg in 30 µL 50% MeOH per disk
[3] = test system: Penicillium sp.; assay: disk diffusion assay on malt agar plates; assay type: cell-based; conditions: 10 µg in 30 µL 50% MeOH per disk
[4] = test system: ATCC 6258 (QC); assay: microdilution assay (NCCLS), inhibitory concentration (IC); assay type: cell-based, Candida krusei
Protocol: (§1) More specifically, a determination of inhibitory concentration (IC) of hassallidin A and hassallidin B for various fungi, Candida species and Candida strains were performed with different media (RPMI-1640 or SAB or AM3) in a microdilution assay by following the guidelines in NCCLS documents M^38-P^25 and M27-A2^26 carried out as follows Each substance was dissolved with 100% dimethyl sulfoxide (Serva, Heidelberg, Germany) to give a stock solution of 3.2 mg/ml followed by nine log2 dilution steps with the solvent. This served as a 100-fold concentrated dilution series ranging from 1.6 mg/ml to 0.003 mg/ml of the test substance. The final concentration of the test substance was 16 µg/ml to 0.031 µg/ml.
(§2) Therefore the 100-fold concentrated dilution series (with 100% DMSO) was diluted to the final concentration by two dilution steps: • (1) Each concentration of the 100-fold concentrated substance was diluted with test medium for 1:50 (for ex.: adding of 13 µl of the test substance to 637 µl test medium). • (2) 100 µl of each 1:50 diluted concentration was filled in a row of wells of a microtitre plate. One well was without the substance but with the 1:50 diluted solvent serving as growth control.
(§3) A further 1:2 dilution of the antifungal was made by the inoculation of each well with 100 µl of the test organism, which was suspended in the test medium. The remaining well of the row was used for sterility control of the medium. The inoculum was strictly prepared according the NCCLS^25 guidelines, resulting in […] for Candida-species and Cryptococcus neoformans. For hyphomycetes CFU's were tenfold higher (see NCCLS). ^26 The growth of the hyphomycetes respectively the inhibition was measured by visual reading with the help of a reading mirror; scoring was done according to NCCLS :^26 score 0 corresponds to a optical clear well or an IC95 or higher, score 1 corresponds to an inhibition of 80 percent (IC80) and the score 2 of the NCCLS definition corresponds to the IC50 values in the tables. The growth of the yeasts was measured spectrophotometrically by a microplate reader (MR 5000, Dynatech laboratories) at 630 nm displaying the optical density (OD). The percent inhibition IC50, IC80 or IC95 (corresponding the scores of 2, 1 and 0) was calculated by the following formula: (100−[(ODof the well−ODof the medium)] × 100)/((ODof the growth control−ODof the medium).) [formula] Table 3. Test series for determining IC values of hassallidin A and B in different media using Candida albicans and Candida krusei. The IC values were measured after 24 h and 48 h at 30 °C.

[5] = test system: Aspergillus fumigatus; assay: disk diffusion assay on malt agar plates; assay type: cell-based; conditions: 10 µg in 30 µL 50% MeOH per disk
[6] = test system: Candida albicans; assay: serial dilution test, minimum inhibitory concentration (MIC); assay type: cell-based; conditions: RPMI-1640 medium, 35 °C, 24 h
Protocol: (§4) The antifungal activity of the compounds according to the present invention, in particular hassallidin A and hassallidin B, was verified for Aspergillus fumigatus and Candida albicans by minimum inhibitory concentration (MIC) data in a serial dilution test. For each fungus six testing wells of a microtiter plate were prepared with 240 µL medium (Sigma RPMI-1640), 10 µL inoculum suspension and 50 µL fungicide solution (50% MeOH) of different concentrations. Inoculum preparation was carried out by guideline of NCCLS.^25 The fungicide solution preparation took place in a series of twofold dilutions from a stock solution of 92 µg/mL starting with 4.6 µg/50 µL down to 0.14 µg/50 µL. One well was prepared without antifungal agent for unhindered growth as control. The microtiter plates were incubated for Candida albicans and Aspergillus fumigatus at 35 °C for 24 h and 48 h, respectively. Tests were run in triplicates. Inhibition of growth was assessed by comparing the fungal growth of the test samples with the control well by determination of optical density at 595 nm in a microplate reader. The concentration of the well at highest dilution that was still free from growth was assigned the minimum inhibitory concentration (MIC in µg/mL). […] No activities were observed by using Bacillus subtilis, Streptomyces versicolor or Escherchia coli in disk diffusion assays on LB-agar plates with 10 µg hassallidin A in 30 µL 50% MeOH per disk.

[7] = test system: Aspergillus fumigatus; assay: as above; assay type: cell-based; conditions: RPMI-1640 medium, 35 °C, 48 h
Protocol: as §4

[8] = test system: Candida albicans SC 5314; assay: microdilution assay (NCCLS), inhibitory concentration (IC); assay type: cell-based
Protocol: as §1, §2, §3

[9] = test system: Candida albicans; assay: disk diffusion assay on malt agar plates; assay type: cell-based; conditions: 10 µg in 30 µL 50% MeOH per disk
[10] = Table 3 series, RPMI, 30 °C, 24h
[11] = Table 3 series, RPMI, 30 °C, 48h
[12] = Table 4 series, RPMI-1640 medium, 30°C/24h
[13] = Table 4 series, RPMI-1640 medium, 30°C/48h
[14] = Table 4 series, RPMI-1640 medium, 35°C/24h
[15] = Table 4 series, RPMI-1640 medium, 35°C/48h
[16] = Table 3 series, AM3, 30 °C, 24h
[17] = Table 3 series, AM3, 30 °C, 48h
[18] = Table 3 series, SAB, 30 °C, 24h
[19] = Table 3 series, SAB, 30 °C, 48h

hassallidin A
16 µg/mL: IC50 [4, 10] | IC80 [4, 10] | IC95 [4, 10] | IC50 [4, 11] | IC80 [4, 11] | IC95 [4, 11] | IC50 [4, 15] | IC95 [4, 15] | IC50 [8, 10] | IC80 [8, 10] | IC95 [8, 10] | IC50 [8, 11] | IC80 [8, 11] | IC95 [8, 11]
8 µg/mL: IC50 [4, 12] | IC80 [4, 12] | IC95 [4, 12] | IC50 [4, 13] | IC80 [4, 13] | IC95 [4, 13] | IC50 [4, 14] | IC50 [8, 17] | IC80 [8, 17] | IC95 [8, 17] | IC50 [8, 19] | IC80 [8, 19] | IC95 [8, 19] | IC50 [8, 14] | IC80 [8, 14] | IC95 [8, 14] | IC50 [8, 15] | IC80 [8, 15] | IC95 [8, 15]
4.8 µg/mL: MIC [6] | MIC [7]
precise antifungal activity: antifungal activity in disk diffusion assay [1] | antifungal activity in disk diffusion assay [2] | antifungal activity in disk diffusion assay [3] | antifungal activity in disk diffusion assay [5] | antifungal activity in disk diffusion assay [9]
4 µg/mL: IC50 [8, 16] | IC80 [8, 16] | IC95 [8, 16] | IC50 [8, 18] | IC80 [8, 18] | IC95 [8, 18]

hassallidin B
4 µg/mL: IC50 [8, 16] | IC80 [8, 16] | IC95 [8, 16]
4.8 µg/mL: MIC [6] | MIC [7]
8 µg/mL: IC50 [8, 17] | IC80 [8, 17] | IC95 [8, 17] | IC50 [8, 18] | IC80 [8, 18] | IC95 [8, 18] | IC50 [8, 19] | IC80 [8, 19] | IC95 [8, 19]
16 µg/mL: IC50 [4, 10] | IC80 [4, 10] | IC95 [4, 10] | IC50 [4, 11] | IC80 [4, 11] | IC95 [4, 11] | IC50 [8, 10] | IC80 [8, 10] | IC95 [8, 10] | IC50 [8, 11] | IC80 [8, 11] | IC95 [8, 11]
precise antifungal activity: antifungal activity in disk diffusion assay [1] | antifungal activity in disk diffusion assay [2] | antifungal activity in disk diffusion assay [3] | antifungal activity in disk diffusion assay [5] | antifungal activity in disk diffusion assay [9]
